Results: ChEMBL document CHEMBL1201862, “PubChem BioAssay data set” (2004)
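Cells were grown in 96-well plates and exposed to each compound for 48 hours at five concentrations; endpoints were interpolated linearly between bracketing concentrations, or set to the highest concentration if not reached. GI50 = concentration required for 50% inhibition of growth.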 Activity calls are given as the source filed them. Cut-off read from the data, not from the text of the source: active = GI50 up to about 1.1 µM and inactive = higher.

How the values were obtained:
Assay in all cases: growth of human tumour cells (NCI), 48 h
T47D = tested on: T47D
HOP-18 = tested on: HOP-18
HCT-116 = tested on: HCT-116
SNB-19 = tested on: SNB-19
786-0 = tested on: 786-0
DMS-273 = tested on: DMS-273
Hs-578T = tested on: Hs-578T
UACC-257 = tested on: UACC-257
SNB-78 = tested on: SNB-78
KM12 = tested on: KM12
DLD-1 = tested on: DLD-1
LOX IMVI = tested on: LOX IMVI
NCI/ADR-RES = tested on: NCI/ADR-RES
SK-MEL-5 = tested on: SK-MEL-5
M19-MEL = tested on: M19-MEL
PC-3 = tested on: PC-3
M14 = tested on: M14
A549 = tested on: A549

Measured: GI50

CC1=C(C(=O)Nc2ccc(Cl)c(C(=O)OC(C)C)c2)SCCO1
inactive: T47D 24.2 µM | HOP-18 81.3 µM | HCT-116 > 77.4 µM | SNB-19 70.5 µM | 786-0 > 100 µM | DMS-273 55.6 µM | Hs-578T 17.7 µM | UACC-257 62.1 µM | SNB-78 99.5 µM | KM12 80.9 µM | DLD-1 74 µM | LOX IMVI 51.6 µM | NCI/ADR-RES 66.2 µM | SK-MEL-5 50.1 µM | M19-MEL 26.6 µM | PC-3 > 100 µM | M14 > 100 µM | A549 50.1 µM

COc1cc2c(cc1OC)C(Cc1c3ccccc3cc3ccccc13)N(C)CC2 (stereo unspecified)
inactive: HOP-18 16.5 µM | HCT-116 14.9 µM | SNB-19 22.2 µM | DMS-273 26 µM | UACC-257 18.9 µM | SNB-78 23.9 µM | KM12 16.3 µM | DLD-1 32.1 µM | LOX IMVI 18 µM | NCI/ADR-RES 24.7 µM | SK-MEL-5 17.3 µM | M19-MEL 21.3 µM | A549 39.8 µM
